Measured values reported in PubChem BioAssay (NCI).
Where “and” joins values, the source holds several entries; their conditions need not be identical. Equal values may be shown once.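 The compound was tested at five concentrations on cells cultured in 96-well plates, with a 48-hour exposure period. The concentration for 50% growth inhibition is given as GI50. TGI: concentration producing complete growth inhibition.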

Tests used:
Assay in all cases: NCI tumour cell line growth inhibition, 48 h
COLO 205 colon = tested on: COLO 205 colon
EKVX NSCLC = tested on: EKVX NSCLC
LOX IMVI melanoma = tested on: LOX IMVI melanoma
MALME-3M melanoma = tested on: MALME-3M melanoma
MOLT-4 leukemia = tested on: MOLT-4 leukemia
NCI-H226 lung = tested on: NCI-H226 lung
OVCAR-8 ovarian = tested on: OVCAR-8 ovarian
RPMI-8226 leukemia = tested on: RPMI-8226 leukemia
SF-268 CNS = tested on: SF-268 CNS
UACC-62 melanoma = tested on: UACC-62 melanoma

Structure (SMILES)	GI50 (COLO 205 colon)	TGI (COLO 205 colon)	GI50 (EKVX NSCLC)	TGI (EKVX NSCLC)	GI50 (LOX IMVI melanoma)	TGI (LOX IMVI melanoma)	GI50 (MALME-3M melanoma)	TGI (MALME-3M melanoma)	GI50 (MOLT-4 leukemia)	TGI (MOLT-4 leukemia)	GI50 (NCI-H226 lung)	TGI (NCI-H226 lung)	GI50 (OVCAR-8 ovarian)	TGI (OVCAR-8 ovarian)	GI50 (RPMI-8226 leukemia)	TGI (RPMI-8226 leukemia)	GI50 (SF-268 CNS)	TGI (SF-268 CNS)	GI50 (UACC-62 melanoma)	TGI (UACC-62 melanoma)
[CH3][Sn]([CH3])([CH3])[O]C(=O)C(O)c1ccccc1 (configuration not stated)	4.93 µM	23.7 µM	5.36 µM	55.7 µM	2.85 µM	8.53 µM	5.6 µM	24.8 µM	4.86 µM	> 100 µM	16.4 µM	94 µM	4.65 µM	> 54.9 µM	3.38 µM	> 44.2 µM	6.2 µM	> 82.7 µM	2.11 µM	4.49 µM
N#Cc1ccc(N2Cc3cc(Cl)ccc3OC3=C2C(=O)N(Cc2ccc(F)cc2)C3=O)cc1	1.57 µM	3.65 µM	1.08 µM	4.24 µM	0.453 µM	0.908 µM	0.559 µM	1.13 µM	0.291 µM	1.26 µM	1.62 µM	3.75 µM	1.43 µM	3.12 µM	0.252 µM	0.814 µM	0.658 µM	1.66 µM	0.537 µM	1.13 µM
O=C(N/N=C/c1ccncc1)c1ccc(C(F)(F)F)nc1Nc1cccc(C(F)(F)F)c1	2.57 µM	7.51 µM	1.39 µM	8.87 µM	0.913 µM	12.3 µM	2 µM	6.99 µM	2.53 µM	9.1 µM	2.65 µM	11 µM	2.39 µM	10.4 µM	0.514 µM	4.05 µM	2.55 µM	7.36 µM	2.57 µM	8.54 µM
Nc1cccc2c1CN(C1CCC(=O)NC1=O)C2=O (configuration not stated)	> 100 µM	> 100 µM	> 100 µM	> 100 µM	> 100 µM	> 100 µM	> 100 µM	> 100 µM	> 100 µM	> 100 µM	> 100 µM	> 100 µM	> 100 µM	> 100 µM	> 100 µM	> 100 µM	> 100 µM	> 100 µM	> 100 µM	> 100 µM
O=S1CCN(Cc2ccc(-c3ccc4ncnc(Nc5ccc(OCc6ccccc6)c(F)c5)c4c3)o2)CC1	4.42 µM	10.6 µM	0.212 µM	> 25 µM	6.39 µM	> 23.4 µM	7.08 µM	> 22.6 µM	8.76 µM	> 25 µM	5.61 µM	19.2 µM	11.4 µM	> 25 µM	8.71 µM	> 25 µM	17.8 µM	> 25 µM	5.1 µM	16 µM
COC(=O)c1c2c(c(C)[n+]([O-])c1C)C(=O)C=C(NCc1ccc(Br)cc1)C2=O	0.322 µM	1.17 µM	0.763 µM	2.37 µM	0.07 µM	1.62 µM	0.154 µM	0.389 µM	0.87 µM	3.99 µM	1.3 µM	2.98 µM	–	–	1.47 µM	5.1 µM	1.22 µM	3.35 µM	0.0438 µM	1.09 µM
Cc1ccc2c(n1)C(=O)C(Cl)=C(Nc1ccc(N3CCN(C)CC3)cc1)C2=O	1.77 µM	3.27 µM	1.73 µM	3.12 µM	1.78 µM	3.22 µM	1.62 µM	2.99 µM	2.37 µM	5.78 µM	1.77 µM	3.38 µM	1.85 µM	3.4 µM	2.68 µM	7.28 µM	1.89 µM	4.13 µM	1.71 µM	3.12 µM
Cc1cc(C(=O)N2CCN(C)CC2)c2c(=O)n(-c3ccccc3)c(=O)n(CC(O)CN3CCN(c4ncccn4)CC3)c2n1 (configuration not stated)	> 100 µM	> 100 µM	> 100 µM	> 100 µM	> 100 µM	> 100 µM	> 100 µM	> 100 µM	> 100 µM	> 100 µM	> 100 µM	> 100 µM	–	–	> 100 µM	> 100 µM	> 100 µM	> 100 µM	> 100 µM	> 100 µM
Cc1cc(Br)c2nsnc2c1[N+](=O)[O-]	3.01 µM	7.97 µM	1.76 µM	5.73 µM	0.94 µM	3.07 µM	2.08 µM	6.55 µM	1.64 µM	4.93 µM	7.13 µM	19.2 µM	3.18 µM	12.1 µM	0.666 µM	9.55 µM	2 µM	5.16 µM	7.13 µM	20 µM
COc1ccc(Oc2nc(Nc3ccc(N4CCOCC4)cc3)ncc2NC(=O)Nc2cc(OC)cc(OC)c2)cc1	5.27 µM	14.7 µM	7.56 µM	> 33.3 µM	3.59 µM	12.6 µM	0.969 µM	3.27 µM	10.6 µM	> 33.3 µM	3.84 µM	11.8 µM	4.65 µM	> 33.3 µM	5.21 µM	32.6 µM	2.64 µM	> 33.3 µM	1.99 µM	7.41 µM
Oc1[nH]c2ccc(Cl)cc2c1/C=c1/ccc2c(c1)N=C(c1ccc(C(F)(F)F)cc1)N=2	2.1 µM	4.13 µM	3.16 µM	18.3 µM	1.77 µM	3.42 µM	2.34 µM	6.57 µM	2.41 µM	6.19 µM	3.13 µM	11.6 µM	3.17 µM	11.4 µM	2.21 µM	5.44 µM	2.72 µM	7.64 µM	1.71 µM	4.06 µM
Cc1nn2c(=O)n(-c3cccc(-n4nnc5c(-c6ccccc6)c(C)nn5c4=O)c3C)nnc2c1-c1ccccc1	–	42.7 µM	–	> 100 µM	–	> 100 µM	–	56 µM	–	50 µM	–	> 100 µM	–	> 100 µM	–	96.4 µM	–	> 100 µM	–	> 100 µM
O=C1NC(=O)C(N2CCc3ccccc32)=C1c1ccc(Cl)cc1	> 25 µM	> 25 µM	> 24.1 µM	> 25 µM	> 25 µM	> 25 µM	> 25 µM	> 25 µM	> 25 µM	> 25 µM	> 25 µM	> 25 µM	> 25 µM	> 25 µM	> 25 µM	> 25 µM	> 25 µM	> 25 µM	24.8 µM	> 25 µM
CN(C)CCCNC(=O)c1cccc2nc3ccccc3nc12	–	> 48.3 µM	–	> 77.4 µM	–	39.8 µM	–	19.3 µM	–	> 100 µM	–	39.1 µM	–	> 82.2 µM	–	> 100 µM	–	39.9 µM	–	> 57.8 µM
CCN1CCN(CC(=O)Nc2nc3ccc(NCc4ccc(C)cc4)cc3s2)CC1	1.03 µM	2.1 µM	5.67 µM	13.8 µM	0.94 µM	1.86 µM	1.04 µM	2.43 µM	1.59 µM	5.99 µM	7.77 µM	18.8 µM	6.66 µM	16.5 µM	1.09 µM	3.34 µM	5.76 µM	16.5 µM	1.01 µM	2.06 µM
Cc1cc2oc(=O)c(Cl)c(Cl)c2c(C)c1Cl	–	8.09 µM	–	34.5 µM	–	8.84 µM	–	23.7 µM	–	5.21 µM	–	33.2 µM	–	10.4 µM	–	6 µM	–	11.5 µM	–	20.2 µM
Cc1ccc(NC(C(=O)c2ccccc2)c2ccccc2)cc1 (configuration not stated)	3.02 µM	13.7 µM	1 µM	6 µM	3.22 µM	39.4 µM	2.42 µM	9.52 µM	4.71 µM	> 100 µM	18 µM	> 100 µM	3.52 µM	> 100 µM	2.71 µM	14.6 µM	3.1 µM	14.2 µM	3.93 µM	> 100 µM
O=C(NCCSSCCNC(=O)/C(Cc1ccc(O)c(Br)c1)=N/O)/C(Cc1ccc(O)c(Br)c1)=N/O	–	6.82 µM	–	> 24 µM	–	3.31 µM	–	7.44 µM	–	8.58 µM	–	41.9 µM	–	> 50 µM	–	5.35 µM	–	9.75 µM	–	7.32 µM
O=C(NC1CCNCC1)c1[nH]ncc1NC(=O)c1c(Cl)cccc1Cl	0.218 µM and 0.182 µM	0.558 µM and 0.726 µM	0.998 µM	> 10 µM	0.281 µM and 0.261 µM	> 100 µM	0.325 µM and 0.257 µM	1.68 µM and 1.03 µM	0.357 µM and 0.329 µM	1.49 µM and > 10 µM	0.346 µM and 0.325 µM	4.01 µM and 2.32 µM	0.659 µM and 0.66 µM	> 100 µM	0.329 µM and 0.313 µM	0.999 µM and > 2.62 µM	0.343 µM and 0.352 µM	3.82 µM and > 7.39 µM	1.33 µM and 0.479 µM	3.18 µM and 1.89 µM
CC[C@@]1(OC(=O)C(N)CCC(=O)O)C(=O)OCc2c1cc1n(c2=O)Cc2cc3ccccc3nc2-1 (some centres not stated)	–	3.03 µM	–	> 57.8 µM	–	0.482 µM	–	2.79 µM	–	0.0992 µM	–	0.192 µM	–	10.7 µM	–	2.94 µM	–	14.7 µM	–	0.16 µM
O=Cc1c[nH]c2ccc(-c3csc4ccccc34)cc12	4.46 µM	> 100 µM	2.75 µM	> 100 µM	3.87 µM	> 100 µM	4.39 µM	37.5 µM	3.1 µM	19.1 µM	3.7 µM	> 100 µM	3.47 µM	> 100 µM	1.54 µM	7.49 µM	4.42 µM	54.3 µM	3.02 µM	34.6 µM
NC(Cn1ccc(=O)c(O)c1)C(=O)O (configuration not stated)	–	> 100 µM	–	> 100 µM	–	> 100 µM	–	> 100 µM	–	> 100 µM	–	> 100 µM	–	> 100 µM	–	> 100 µM	–	> 100 µM	–	> 100 µM
CCOc1ccc(/C=N\N2C(=O)c3ccccc3C2=O)cc1	–	–	–	> 100 µM	–	> 100 µM	–	> 100 µM	–	> 100 µM	–	> 100 µM	–	> 100 µM	–	> 100 µM	–	> 100 µM	–	> 100 µM
Cc1cc(NS(=O)(=O)c2ccc(NC(=O)COc3ccc(-c4cc5ccccc5[nH]4)cc3)cc2)no1	1.78 µM	3.27 µM	2.32 µM	8.45 µM	1.86 µM	5.18 µM	1.5 µM	3.85 µM	2.05 µM	9.72 µM	2.14 µM	9.88 µM	2.01 µM	4.77 µM	2.87 µM	> 100 µM	2.33 µM	7.74 µM	1.53 µM	3.26 µM
CC[C@@]1(O)C(=O)OCc2c1cc1n(c2=O)Cc2cc3c(Cl)c4c(cc3nc2-1)OCO4	1.05 µM	> 100 µM	5.93 µM and 1.91 µM	> 100 µM	< 0.001 µM	0.218 µM and 0.321 µM	0.087 µM	31.4 µM	< 0.001 µM	–	< 0.001 µM	0.0701 µM	< 0.001 µM	–	–	4.38 µM	0.0216 µM	13.2 µM	< 0.001 µM	0.337 µM and 0.544 µM
CC(=O)Nc1c(I)c(C(=O)O)c(I)c(N(C)C(C)=O)c1I	> 100 µM	> 100 µM	> 100 µM	> 100 µM	> 100 µM	> 100 µM	> 100 µM	> 100 µM	> 100 µM	> 100 µM	> 100 µM	> 100 µM	> 100 µM	> 100 µM	> 100 µM	> 100 µM	> 100 µM	> 100 µM	> 100 µM	> 100 µM
O=S(=O)(CC(O)C(Cl)(Cl)Cl)NNc1ccccc1 (configuration not stated)	–	> 100 µM	–	> 100 µM	–	> 100 µM	–	> 100 µM	–	> 100 µM	–	> 100 µM	–	> 100 µM	–	> 100 µM	–	> 100 µM	–	> 100 µM
CC(C)(C)C1CCP(=O)(c2ccccc2)CC1 (configuration not stated)	–	> 100 µM	–	> 100 µM	–	> 100 µM	–	> 100 µM	–	> 100 µM	–	> 100 µM	–	> 100 µM	–	> 100 µM	–	–	–	> 100 µM
Cc1cn(C2CC(N=[N+]=[N-])C(CO)O2)c(=O)[nH]c1=O (configuration not stated)	433 µM	> 1000 µM	> 1000 µM	> 1000 µM	532 µM	> 1000 µM	> 1000 µM	> 1000 µM	> 1000 µM	> 1000 µM	> 1000 µM	> 1000 µM	–	> 1000 µM	20.4 µM	184 µM	–	–	–	> 1000 µM
